# Experimental data taken from US10131652B2, “Pyrimidinyloxy benzene derivatives as herbicides” (E. I. DU PONT DE NEMOURS AND COMPANY, priority 2014, dated 2018).
# Assays:
# Assay type in all cases: in vivo
# [1] = tested on: pigweed (Amaranthus retroflexus); test: Test D pre-/postemergence plant response; details: Postemergence
# Procedure, shortened: (§1)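 Sown seed (loam/sand soil) treated preemergence; emerged plants, 1- to 4-leaf stage and 2 to 18 cm, treated postemergence in peat/vermiculite medium. Greenhouse incubation 13–15 d. Endpoint: visual 0–100 rating versus untreated.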
# [2] = tested on: morningglory (Ipomoea coccinea); test: Test D pre-/postemergence plant response; details: Postemergence
# Procedure, shortened: as §1
# [3] = tested on: barnyardgrass (Echinochloa crus-galli); test: Test D pre-/postemergence plant response; details: Postemergence; for Barnyardgrass plant response rating: scale 0 to 100 (0 no effect, 100 complete control); for Plant response rating, Barnyardgrass: scale 0 to 100, 0 no effect, 100 complete control
# Procedure, shortened: as §1
# [4] = tested on: galium (catchweed bedstraw, Galium aparine); test: Test D pre-/postemergence plant response; details: Postemergence; for Galium plant response rating: scale 0 to 100 (0 no effect, 100 complete control); for Plant response rating, Galium: scale 0 to 100, 0 no effect, 100 complete control
# Procedure, shortened: as §1
# [5] = tested on: ragweed (common ragweed, Ambrosia elatior); test: Test D pre-/postemergence plant response; details: Postemergence
# Procedure, shortened: as §1
# [6] = tested on: giant foxtail (Setaria faberii); test: Test D pre-/postemergence plant response; details: Postemergence; for Foxtail, Giant plant response rating: scale 0 to 100 (0 no effect, 100 complete control); for Plant response rating, Foxtail, Giant: scale 0 to 100, 0 no effect, 100 complete control
# Procedure, shortened: as §1
# [7] = tested on: corn (Zea mays); test: Test D pre-/postemergence plant response; details: Postemergence; for Corn plant response rating: scale 0 to 100 (0 no effect, 100 complete control); for Plant response rating, Corn: scale 0 to 100, 0 no effect, 100 complete control
# Procedure, shortened: as §1
# [8] = tested on: waterhemp (common waterhemp, Amaranthus rudis); test: Test D pre-/postemergence plant response; details: Postemergence
# Procedure, shortened: as §1
# [9] = tested on: Italian ryegrass (Lolium multiflorum); test: Test D pre-/postemergence plant response; details: Postemergence
# Procedure, shortened: as §1
# [10] = tested on: blackgrass (Alopecurus myosuroides); test: Test D pre-/postemergence plant response; details: Postemergence; for Blackgrass plant response rating: scale 0 to 100 (0 no effect, 100 complete control); for Plant response rating, Blackgrass: scale 0 to 100, 0 no effect, 100 complete control
# Procedure, shortened: as §1
# [11] = tested on: lambsquarters (Chenopodium album); test: Test D pre-/postemergence plant response; details: Postemergence
# Procedure, shortened: as §1
# [12] = tested on: pigweed (Amaranthus retroflexus); test: Test B pre-/postemergence plant response
# Procedure, shortened: (§2)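 Ratings reflect visual injury versus untreated controls, from 0 for no effect to 100 for complete control, assessed roughly 10 days after treatment. Formulation: non-phytotoxic solvent mix with surfactant; pre- and postemergence sprays on plants grown in loam soil and sand.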
# [13] = tested on: wheat (Triticum aestivum); test: Test B pre-/postemergence plant response
# Procedure, shortened: as §2
# [14] = tested on: barnyardgrass (Echinochloa crus-galli); test: Test B pre-/postemergence plant response
# Procedure, shortened: as §2
# [15] = tested on: giant foxtail (Setaria faberii); test: Test B pre-/postemergence plant response
# Procedure, shortened: as §2
# [16] = tested on: corn (Zea mays); test: Test B pre-/postemergence plant response
# Procedure, shortened: as §2
# [17] = 31 g ai/ha, scale 0 to 100 (0 no effect, 100 complete control)
# [18] = 62 g ai/ha, scale 0 to 100, 0 no effect, 100 complete control
# [19] = 125 g ai/ha, scale 0 to 100, 0 no effect, 100 complete control
# [20] = 31 g ai/ha, Preemergence, 0 to 100 scale where 0 is no effect and 100 is complete control
# [21] = 125 g ai/ha, postemergence, 0 to 100 scale, 0 no effect, 100 complete control
# [22] = Postemergence, 31 g ai/ha, 0 to 100 scale (0 no effect, 100 complete control)
# [23] = Preemergence, 125 g ai/ha, 0 to 100 scale (0 no effect, 100 complete control)
# [24] = 16 g ai/ha, scale 0 to 100 (0 no effect, 100 complete control)
# [25] = 31 g ai/ha, Postemergence, 0 to 100 scale, 0 no effect, 100 complete control
# [26] = Preemergence, 125 g ai/ha, 0 to 100 scale where 0 is no effect and 100 is complete control
structure (smiles),measurement,setting,value
FC(F)c1cc(-c2ccccc2Oc2ncc(Br)cn2)on1 [Compound 212],"Plant response rating (scale 0 to 100), Pigweed",[1]; 16 g ai/ha,100
same,Pigweed plant response rating,[1]; [17],100
same,Pigweed plant response rating,[1]; [18],100
same,"Plant response rating, Pigweed",[1]; [19],100
same,"Plant response rating (scale 0 to 100), Morningglory",[2]; 16 g ai/ha,75
same,Morningglory plant response rating,[2]; [17],98
same,Morningglory plant response rating,[2]; [18],75
same,"Plant response rating, Morningglory",[2]; [19],98
same,"Plant response rating (scale 0 to 100), Barnyardgrass",[3]; 16 g ai/ha,5
same,Barnyardgrass plant response rating,[3]; 31 g ai/ha,5
same,"Plant response rating, Barnyardgrass",[3]; 62 g ai/ha,15
same,"Plant response rating, Barnyardgrass",[3]; 125 g ai/ha,25
same,"Plant response rating (scale 0 to 100), Galium",[4]; 16 g ai/ha,60
same,Galium plant response rating,[4]; 31 g ai/ha,60
same,"Plant response rating, Galium",[4]; 62 g ai/ha,65
same,"Plant response rating, Galium",[4]; 125 g ai/ha,80
same,"Plant response rating (scale 0 to 100), Ragweed",[5]; 16 g ai/ha,35
same,Ragweed plant response rating,[5]; [17],40
same,Ragweed plant response rating,[5]; [18],55
same,"Plant response rating, Ragweed",[5]; [19],60
same,"Plant response rating (scale 0 to 100), Foxtail, Giant",[6]; 16 g ai/ha,10
same,"Foxtail, Giant plant response rating",[6]; 31 g ai/ha,10
same,"Plant response rating, Foxtail, Giant",[6]; 62 g ai/ha,15
same,"Plant response rating, Foxtail, Giant",[6]; 125 g ai/ha,10
same,"Plant response rating (scale 0 to 100), Corn",[7]; 16 g ai/ha,5
same,Corn plant response rating,[7]; 31 g ai/ha,5
same,"Plant response rating, Corn",[7]; 62 g ai/ha,10
same,"Plant response rating, Corn",[7]; 125 g ai/ha,15
same,"Plant response rating (scale 0 to 100), Waterhemp",[8]; 16 g ai/ha,80
same,Waterhemp plant response rating,[8]; [17],98
same,Waterhemp plant response rating,[8]; [18],100
same,"Plant response rating, Waterhemp",[8]; [19],100
same,"Plant response rating (scale 0 to 100), Ryegrass, Italian",[9]; 16 g ai/ha,0
same,"Ryegrass, Italian plant response rating",[9]; [17],0
same,"Ryegrass, Italian plant response rating",[9]; [18],0
same,"Plant response rating, Ryegrass, Italian",[9]; [19],5
same,"Plant response rating (scale 0 to 100), Blackgrass",[10]; 16 g ai/ha,0
same,Blackgrass plant response rating,[10]; 31 g ai/ha,0
same,"Plant response rating, Blackgrass",[10]; 62 g ai/ha,0
same,"Plant response rating, Blackgrass",[10]; 125 g ai/ha,10
same,"Plant response rating (scale 0 to 100), Lambsquarters",[11]; 16 g ai/ha,40
same,Lambsquarters plant response rating,[11]; [17],80
same,Lambsquarters plant response rating,[11]; [18],98
same,"Plant response rating, Lambsquarters",[11]; [19],98
same,"Plant response rating, Pigweed",[12]; [20],100
same,"Plant response rating, Pigweed",[12]; [21],100
same,"Plant response rating, Pigweed",[12]; [22],90
same,Pigweed plant response rating,[12]; [23],100
same,"Plant response rating, Wheat",[13]; [21],10
same,"Plant response rating, Wheat",[13]; [22],0
same,"Plant response rating, Barnyardgrass",[14]; [20],10
same,"Plant response rating, Barnyardgrass",[14]; [21],30
same,"Plant response rating, Barnyardgrass",[14]; [22],0
same,Barnyardgrass plant response rating,[14]; [23],60
same,"Plant response rating, Foxtail, Giant",[15]; [20],60
same,"Plant response rating, Foxtail, Giant",[15]; [21],70
same,"Plant response rating, Foxtail, Giant",[15]; [22],10
same,"Foxtail, Giant plant response rating",[15]; [23],100
same,"Plant response rating, Corn",[16]; [21],20
same,"Plant response rating, Corn",[16]; [22],10
FC(Cl)c1cc(-c2ccccc2Oc2ncc(Cl)cn2)no1 (centres unmarked) [Compound 116],Pigweed plant response rating,[1]; [24],75
same,Pigweed plant response rating,[1]; [17],75
same,"Plant response rating, Pigweed",[1]; [18],90
same,"Plant response rating, Pigweed",[1]; [19],90
same,Morningglory plant response rating,[2]; [24],15
same,Morningglory plant response rating,[2]; [17],10
same,"Plant response rating, Morningglory",[2]; [18],10
same,"Plant response rating, Morningglory",[2]; [19],30
same,Barnyardgrass plant response rating,[3]; 16 g ai/ha,5
same,Barnyardgrass plant response rating,[3]; 31 g ai/ha,5
same,"Plant response rating, Barnyardgrass",[3]; 62 g ai/ha,20
same,"Plant response rating, Barnyardgrass",[3]; 125 g ai/ha,30
same,Galium plant response rating,[4]; 16 g ai/ha,60
same,Galium plant response rating,[4]; 31 g ai/ha,60
same,"Plant response rating, Galium",[4]; 62 g ai/ha,70
same,"Plant response rating, Galium",[4]; 125 g ai/ha,90
same,Ragweed plant response rating,[5]; [24],40
same,Ragweed plant response rating,[5]; [17],35
same,"Plant response rating, Ragweed",[5]; [18],60
same,"Plant response rating, Ragweed",[5]; [19],75
same,"Foxtail, Giant plant response rating",[6]; 16 g ai/ha,5
same,"Foxtail, Giant plant response rating",[6]; 31 g ai/ha,5
same,"Plant response rating, Foxtail, Giant",[6]; 62 g ai/ha,10
same,"Plant response rating, Foxtail, Giant",[6]; 125 g ai/ha,60
same,Corn plant response rating,[7]; 16 g ai/ha,5
same,Corn plant response rating,[7]; 31 g ai/ha,10
same,"Plant response rating, Corn",[7]; 62 g ai/ha,5
same,"Plant response rating, Corn",[7]; 125 g ai/ha,10
same,Waterhemp plant response rating,[8]; [24],70
same,Waterhemp plant response rating,[8]; [17],90
same,"Plant response rating, Waterhemp",[8]; [18],90
same,"Plant response rating, Waterhemp",[8]; [19],100
same,"Ryegrass, Italian plant response rating",[9]; [24],0
same,"Ryegrass, Italian plant response rating",[9]; [17],0
same,"Plant response rating, Ryegrass, Italian",[9]; [18],5
same,"Plant response rating, Ryegrass, Italian",[9]; [19],10
same,Blackgrass plant response rating,[10]; 16 g ai/ha,0
same,Blackgrass plant response rating,[10]; 31 g ai/ha,5
same,"Plant response rating, Blackgrass",[10]; 62 g ai/ha,5
same,"Plant response rating, Blackgrass",[10]; 125 g ai/ha,35
same,Lambsquarters plant response rating,[11]; [24],40
same,Lambsquarters plant response rating,[11]; [17],60
same,"Plant response rating, Lambsquarters",[11]; [18],80
same,"Plant response rating, Lambsquarters",[11]; [19],100
same,"Plant response rating, Pigweed",[12]; [25],100
same,"Plant response rating, Pigweed",[12]; [20],70
same,"Plant response rating, Pigweed",[12]; [21],100
same,"Plant response rating, Wheat",[13]; [25],10
same,"Plant response rating, Wheat",[13]; [21],20
same,"Plant response rating, Barnyardgrass",[14]; [25],10
same,"Plant response rating, Barnyardgrass",[14]; [20],0
same,"Plant response rating, Barnyardgrass",[14]; [21],30
same,"Plant response rating, Barnyardgrass",[14]; [26],30
same,"Plant response rating, Foxtail, Giant",[15]; [25],20
same,"Plant response rating, Foxtail, Giant",[15]; [20],40
same,"Plant response rating, Foxtail, Giant",[15]; [21],90
same,"Plant response rating, Foxtail, Giant",[15]; [26],90
same,"Plant response rating, Corn",[16]; [25],20
same,"Plant response rating, Corn",[16]; [21],40
